The supplement of paper PMC11061612

Key:
[1] = system: SBC-3 (Small Cell Lung Carcinoma); test: combination Emax (second highest fraction inhibited in the dose matrix, 72 h); higher = more inhibition; extreme values may be limits of the assay
Method in brief: (§1)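 Cell lines grown in DMEM/F12 or RPMI with 10% FBS were plated in 1536-well plates and held 24 hours at 37°C, 5% CO2 before 72 hours of exposure to two-drug dose matrices, with DMSO typically at 0.2%. CellTiter-Glo 2.0 luminescence gave viability, which was converted to inhibition. Vehicle wells were set to 0 and blank wells to 1. Combination Emax is the second-highest inhibition in the matrix, and Bliss excess is the observed combination effect minus the expected EA + EB − EA·EB, where EA and EB are the single-agent effects.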

[2] = system: BT-474 (Breast Carcinoma); test: as above
Method in brief: as §1

[3] = system: L-363 (Plasma Cell Myeloma); test: as above
Method in brief: as §1

[4] = system: BC-1 (B-Cell Non-Hodgkin's Lymphoma); test: as above
Method in brief: as §1

[5] = system: C32 (Melanoma); test: as above
Method in brief: as §1

[6] = system: SNU-1 (Gastric Carcinoma); test: as above
Method in brief: as §1

[7] = system: JURL-MK1 (Chronic Myelogenous Leukemia); test: as above
Method in brief: as §1

[8] = system: NCI-H1048 (Small Cell Lung Carcinoma); test: as above
Method in brief: as §1

[9] = system: SBC-5 (Small Cell Lung Carcinoma); test: Bliss excess, mean over the matrix (fraction); higher = more synergy
Method in brief: as §1

[10] = system: SCC90 (Head and Neck Carcinoma); test: as above
Method in brief: as §1

[11] = system: RPMI-8402 (T-Lymphoblastic Leukemia); test: as above
Method in brief: as §1

[12] = system: CAL-85-1 (Breast Carcinoma); test: as above
Method in brief: as §1

[13] = system: NCI-H1648 (Lung Adenocarcinoma); test: as above
Method in brief: as §1

[14] = system: SBC-3 (Small Cell Lung Carcinoma); test: as above
Method in brief: as §1

[15] = system: SW1463 (Colorectal Carcinoma); test: as above
Method in brief: as §1

[16] = system: L-363 (Plasma Cell Myeloma); test: as above
Method in brief: as §1

[17] = system: C32 (Melanoma); test: as above
Method in brief: as §1

[18] = system: NCI-H1944 (Lung Adenocarcinoma); test: as above
Method in brief: as §1

[19] = system: HT-1197 (Bladder Carcinoma); test: as above
Method in brief: as §1

[20] = system: DK-MG (Glioblastoma); test: as above
Method in brief: as §1
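For Bliss excess, mean over the matrix in this document: after 72 h of two-drug dosing.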

SMILES | combination Emax [1] | combination Emax [2] | combination Emax [3] | combination Emax [4] | combination Emax [5] | combination Emax [6] | combination Emax [7] | combination Emax [8] | Bliss excess [9] | Bliss excess [10] | Bliss excess [11] | Bliss excess [12] | Bliss excess [13] | Bliss excess [14] | Bliss excess [15] | Bliss excess [16] | Bliss excess [17] | Bliss excess [18] | Bliss excess [19] | Bliss excess [20]
CN(CCO)CC[C@H](CSc1ccccc1)Nc1ccc(S(=O)(=O)NC(=O)c2ccc(N3CCC([C@@H](O)c4ccccc4-c4ccc(Cl)cc4)CC3)cc2)cc1S(=O)(=O)C(F)(F)F [AZD4320] + Cc1cc2ncnn2cc1Nc1ncc2c(n1)n(C1CCOCC1)c(=O)n2C [AZD7648] (first compound max 1 µM, 7x7, partner max 10 µM) | 0.276 | 0.154 | 0.211 | 0.509 | 0.211 | 0.463 | 0.827 | 0.884 | -0.032 | 0.0682 | 0.0194 | -0.0118 | -0.0264 | -0.0767 | -0.0232 | 0.0181 | -0.0275 | 0.0102 | -0.0497 | -0.0591
COc1cc2ncnc(Nc3ccc(F)c(Cl)c3)c2cc1OCCCN1CCOCC1 [Gefitinib] + CC(C)n1c(=O)n(C)c2cnc3cc(F)c(-c4ccc(OCCCN5CCCCC5)nc4)cc3c21 [AZD1390] (first compound max 10 µM, 7x7, partner max 0.3 µM) | 0.107 | 0.485 | 0.148 | 0.601 | 0.114 | 0.239 | 0.499 | 0.0795 | -0.0649 | -0.0582 | -0.0801 | -0.0236 | -0.0521 | -0.0501 | 0.0109 | -0.0135 | -0.0368 | -0.0668 | -0.0549 | -0.0817
CN(CCO)CC[C@H](CSc1ccccc1)Nc1ccc(S(=O)(=O)NC(=O)c2ccc(N3CCC([C@@H](O)c4ccccc4-c4ccc(Cl)cc4)CC3)cc2)cc1S(=O)(=O)C(F)(F)F [AZD4320] + Nc1ccn([C@@H]2O[C@H](CO)[C@@H](O)C2(F)F)c(=O)n1 [Gemcitabine] (first compound max 1 µM, 7x7, partner max 0.3 µM) | 1 |  | 0.458 | 0.974 | 0.805 |  |  |  |  |  | -0.0457 | -0.0055 | -0.0274 | 0.0194 | -0.0192 | 0.0563 | 0.0027 |  |  | 
Cc1cc2ncnn2cc1Nc1ncc2c(n1)n(C1CCOCC1)c(=O)n2C [AZD7648] + O=C(c1cc(Cc2n[nH]c(=O)c3ccccc23)ccc1F)N1CCN(C(=O)C2CC2)CC1 [Olaparib] (first compound max 10 µM, 7x7, partner max 10 µM) | 0.451 | 0.117 | 0.231 | 0.385 | 0.0555 | 0.446 | 0.543 | 0.412 | -0.034 | -0.0364 | -0.0158 | -0.057 | -0.0549 | -0.0148 | -0.0417 | 0.0266 | -0.0375 | -0.033 | 0.0045 | -0.0126
CN(CCO)CC[C@H](CSc1ccccc1)Nc1ccc(S(=O)(=O)NC(=O)c2ccc(N3CCC([C@@H](O)c4ccccc4-c4ccc(Cl)cc4)CC3)cc2)cc1S(=O)(=O)C(F)(F)F [AZD4320] + CCN(CCO)CCCOc1ccc2c(Nc3cc(CC(=O)Nc4cccc(F)c4)[nH]n3)ncnc2c1 [AZD2811] (first compound max 1 µM, 7x7, partner max 1 µM) | 0.523 | 0.319 | 0.135 | 0.662 | 0.643 | 0.541 | 0.929 | 0.933 | -0.0075 | 0.134 | 0.0501 | 0.0218 | 0.0065 | 0.0224 | -0.0238 | -0.015 | 0.114 | 0.0026 | -0.016 | -0.0213
C[C@@H](c1ccc2nccn2c1)n1nnc2ncc(-c3cnn(C)c3)nc21 [Savolitinib] + Cc1c2c(nn1C)CSCc1cc(n(C)n1)CSc1cc(c3ccccc3c1)OCCCc1c(C(=O)O)n(C)c3c-2c(Cl)ccc13 [AZD5991] (first compound max 1 µM, 7x7, partner max 1 µM) | 0.135 | 0.628 | 0.992 | 1 | 0.184 | 0.454 | 0.129 | 0.196 | 0.0286 | -0.0222 | -0.132 | -0.0286 | 0.0216 | -0.0321 | -0.0109 | -0.0203 | -0.0065 | -0.0112 | -0.0356 | -0.0226
Cc1cc2ncnn2cc1Nc1ncc2c(n1)n(C1CCOCC1)c(=O)n2C [AZD7648] + C=CCn1c(=O)c2cnc(Nc3ccc(N4CCN(C)CC4)cc3)nc2n1-c1cccc(C(C)(C)O)n1 [AZD1775] (first compound max 10 µM, partner max 1 µM) | 0.576 | 0.324 | 0.979 | 0.997 | 0.434 | 0.628 | 0.99 | 0.747 | -0.0136 | 0.0276 | -0.0213 | -0.0292 | 0.0026 | -0.0374 | -0.0327 | 0.0185 | 0.0106 | -0.0005 | -0.0553 | 0.0398
C[C@@H](c1ccc2nccn2c1)n1nnc2ncc(-c3cnn(C)c3)nc21 [Savolitinib] + CN(CC[C@H](CSC1=CC=CC=C1)NC2=C(C=C(C=C2)S(=O)(=O)NC(=O)C3=CC=C(C=C3)N4CCC(CC4)[C@H](C5=CC=CC=C5C6=CC=C(C=C6)Cl)O)S(=O)(=O)C(F)(F)F)CCO [AZD4320] (first compound max 1 µM, 7x7, partner max 1 µM) |  | 0.262 |  |  | 0.377 | 0.417 | 0.889 | 0.593 | -0.0003 | 0.0447 |  |  |  |  |  |  | -0.0103 | -0.0288 | -0.0354 | -0.0585
COc1cc2c(cc1OCCCCCOc1cc3c(cc1OC)C(=O)N1C=C(C)C[C@H]1C=N3)N=C[C@@H]1CC(C)=CN1C2=O [SG3199] + O=C(c1cc(Cc2n[nH]c(=O)c3ccccc23)ccc1F)N1CCN(C(=O)C2CC2)CC1 [Olaparib] (first compound max 0.001 µM, 7x7, partner max 10 µM) | 0.478 | 0.049 | 0.0669 | 0.181 | 0.0494 | 0.353 | 0.418 | 0.387 | -0.0193 | -0.0461 | -0.0259 | -0.0407 | -0.0282 | -0.0516 | -0.0393 | -0.0123 | -0.0373 | -0.0259 | -0.028 | -0.0446
N#Cc1cnc(Nc2cc(NC[C@H]3CNCCO3)c(C(F)(F)F)cn2)cn1 [SRA737] + Nc1ccn([C@@H]2O[C@H](CO)[C@@H](O)C2(F)F)c(=O)n1 [Gemcitabine] (first compound max 10 µM, 7x7, partner max 0.3 µM) | 0.97 |  | 0.986 | 0.979 | 0.724 |  |  |  |  |  | 0.0312 | 0.0442 | 0.0912 | 0.0064 | 0.0633 | 0.123 | -0.0986 |  |  | 
Cc1nc(Nc2ncc(C(=O)Nc3c(C)cccc3Cl)s2)cc(N2CCN(CCO)CC2)n1 [Dasatinib] + CC(=O)Nc1cccc(-n2c(=O)n(C3CC3)c(=O)c3c(Nc4ccc(I)cc4F)n(C)c(=O)c(C)c32)c1 [Trametinib] (first compound max 2 µM, 7x7, partner max 1 µM) | 0.528 | 0.0101 | 0.146 | 0.418 | 0.984 | 0.475 | 1 | 0.144 | 0.025 | -0.165 | 0.0053 | 0.0959 | 0.0135 | 0.0453 | -0.0659 | -0.0221 | -0.0198 | 0.0343 | -0.0524 | -0.0685
CN(CCO)CC[C@H](CSc1ccccc1)Nc1ccc(S(=O)(=O)NC(=O)c2ccc(N3CCC([C@@H](O)c4ccccc4-c4ccc(Cl)cc4)CC3)cc2)cc1S(=O)(=O)C(F)(F)F [AZD4320] + CC(=O)O[C@H]1C(=O)[C@@]2(C)[C@H]([C@H](OC(=O)c3ccccc3)[C@]3(O)C[C@H](OC(=O)[C@H](O)[C@@H](NC(=O)c4ccccc4)c4ccccc4)C(C)=C1C3(C)C)[C@]1(OC(C)=O)CO[C@@H]1C[C@@H]2O [Paclitaxel] (first compound max 1 µM, 7x7, partner max 3 µM) | 1 |  | 1 | 1 | 0.864 |  |  |  |  |  | -0.0038 | 0.0773 | -0.0009 | 0.0387 | 0.0662 | -0.0131 | 0.107 |  |  | 
Cc1cc2ncnn2cc1Nc1ncc2c(n1)n(C1CCOCC1)c(=O)n2C [AZD7648] + C[C@@H]1COCCN1C2=NC(=NC(=C2)C3(CC3)[S@](=N)(=O)C)C4=C5C=CNC5=NC=C4 [AZD6738] (first compound max 10 µM, 7x7, partner max 10 µM) | 0.71 | 0.24 | 0.849 | 0.941 | 0.649 | 0.788 | 1 | 0.508 | 0.0284 | 0.0385 | 0.0216 | 0.0307 | -0.0379 | 0 | 0.0087 | 0.0096 | -0.0021 | 0.0055 | -0.0226 | 0.0297
N#Cc1cnc(Nc2cc(NC[C@H]3CNCCO3)c(C(F)(F)F)cn2)cn1 [SRA737] + O=c1[nH]cc(F)c(=O)[nH]1 [5-Fluorouracil] (first compound max 10 µM, 7x7, partner max 20 µM) | 0.66 |  | 0.934 | 0.739 | 0.15 |  |  |  |  |  | -0.0445 | 0.0703 | -0.0515 | -0.0447 | -0.0006 | 0.0691 | -0.0343 |  |  | 
